Measurements: publication PMC7862291, “Full-length in meso structure and mechanism of rat kynurenine 3-monooxygenase inhibition” (Communications Biology, 2021)

What was measured:
[1] = target: T1, hKMO (Homo sapiens, UniProt O15229); test: Human KMO enzyme (cell-free) assay, NADPH consumption by absorbance; assay type: biochemical
T1 construct: purchased Origene
Protocol: (§1) Human KMO was purchased from Origene and used to assay compounds. Full-length Rat-KMO purified for crystallisation was used to assay compounds. Full-length Rat-KMO-expressing membranes were used for mutant assays (Fig. 4b) only. […] Images were taken using Odyssey CLX (LI-COR Biosciences) and quantified using ImageStudio2.0 (LI-COR Biosciences) software.
(§2) Test compounds were dissolved in DMSO and diluted with assay buffer containing 50 mM HEPES, 2 mM MgCl2, 0.5 mM EGTA, 1 mM DTT, 0.05% Tween20 and 0.005% of antiform SI (pH = about 7.9) to prepare a 4% DMSO solution. […] After 5 min of pre-incubation, reactions were started by adding 10 μL of substrate solution containing 2.4 mM kynurenine and 0.6 mM NADPH. Reactions were run for 90 min at 30 °C, then terminated by adding 5 μL of stop buffer (40 mM maleimide, 2 mM WST-9 and 0.1 mM 1-methoky PMS in water). […] Liposomal assays were performed in the same manner except that the composition of the assay buffer was changed (phosphate-buffered saline, 2 mM MgCl2, 1 mM DTT, 0.05% Tween 20).
(§3) Compound assays were analysed and plotted on graphs using Prism (GraphPad Software Inc. San Diego, CA, USA).

[2] = target: T2, HEK293 cells stably expressing human KMO (Homo sapiens, UniProt O15229); test: Cell-based human KMO inhibition assay (LC/MS of 3-hydroxykynurenine)
T2 construct: expressed in transfected cells
T2 sequence (O15229 whole entry): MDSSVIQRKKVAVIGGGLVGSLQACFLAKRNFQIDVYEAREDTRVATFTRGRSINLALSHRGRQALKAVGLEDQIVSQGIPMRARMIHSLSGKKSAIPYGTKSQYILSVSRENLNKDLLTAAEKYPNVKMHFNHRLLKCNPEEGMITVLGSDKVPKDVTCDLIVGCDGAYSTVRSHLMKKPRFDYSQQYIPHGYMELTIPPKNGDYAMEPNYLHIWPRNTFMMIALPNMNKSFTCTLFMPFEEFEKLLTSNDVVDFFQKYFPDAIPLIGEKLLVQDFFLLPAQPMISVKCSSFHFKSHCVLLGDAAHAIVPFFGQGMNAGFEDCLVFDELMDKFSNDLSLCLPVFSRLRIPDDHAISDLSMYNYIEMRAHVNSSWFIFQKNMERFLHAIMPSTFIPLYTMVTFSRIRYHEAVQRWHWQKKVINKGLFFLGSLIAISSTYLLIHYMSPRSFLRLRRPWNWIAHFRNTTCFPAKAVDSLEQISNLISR
Protocol: (§4) HEK293 cells stably expressing human or rat KMO were maintained in DMEM containing 10% fetal bovine serum, 50 units/mL penicillin, 50 μg/mL streptomycin and 0.2 mg⁄mL zeocine. […] After 2 overnights, the medium was replaced with 10 μL/well of assay buffer (1 × HBSS containing 20 mM HEPES). Ten microliters per well of the diluted test compounds (final, 0–30 μM, 0.3% DMSO) were added to the respective wells. After ~30 min of pre-incubation at 37 °C, reactions were started by adding 20 μL of substrate solution containing 0.2 mM kynurenine. Reactions were run for 2 h at 37 °C, the assay buffer was discarded and the plate was immediately frozen and stored at −30 °C until LC/MS analysis.
(§5) An 80 µL volume of cold acetonitrile with 2% formic acid was added to the cell pellet in a 384-well plate and centrifuged at 3000 rpm for 10 min at 4 °C. A 40 µL volume of the supernatant was transferred to a new 384-well plate and evaporated to dryness under nitrogen gas at 45 °C. The residue was reconstituted in 100 µL of acetonitrile/water (10:90, v/v) with 0.1% formic acid, and 1 µL was injected into the LC-MS/MS system.
(§6) LC/MS/MS was performed on a Shimadzu UFLC Nexera X2 (Shimadzu Corporation, Japan) and an QTRAP® 5500 LC-MS/MS System (SCIEX, Framingham, USA). Chromatographic separation was performed using an Allure PFP Propyl analytical column (5 µm, 2.1 × 100 mm) maintained at 50 °C. The autosampler temperature was set at 15 °C. The mobile phase consisted of formic acid/water/acetonitrile/methanol (0.5/500/250/250, v/v/v/v) and the flow rate was set at 0.3 mL/min. 3-hydroxykynurenine was eluted from the LC column at a retention time of 1.2 min. The MS system was operated using electrospray ionization (ESI) in positive mode. The optimum conditions were curtain gas, 20 psi; ion spray voltage, 5500 V; heated nebulizer temperature (TEM), 700 °C; nebulizing gas (GS1), 70 psi; and heater gas (GS2), 70 psi. […] Analyst® software (SCIEX, Framingham, USA) was used for system control and MultiQuant™ Software (SCIEX, Framingham, USA) was used for data analysis.
as §3

[3] = target: T3, Rat KMO (Rattus norvegicus, UniProt O88867); test: Rat KMO enzyme (cell-free) assay, NADPH consumption by absorbance; assay type: biochemical
T3 construct: The GST-tagged full-length KMO (1-478) baculovirus vector contained a thrombin cleavage site; GST (thrombin cleavage site between GST and KMO) (N, cleaved yes); made in house; host or cells: Spodoptera frugiperda (Sf9), baculovirus
T3 sequence (O88867 whole entry): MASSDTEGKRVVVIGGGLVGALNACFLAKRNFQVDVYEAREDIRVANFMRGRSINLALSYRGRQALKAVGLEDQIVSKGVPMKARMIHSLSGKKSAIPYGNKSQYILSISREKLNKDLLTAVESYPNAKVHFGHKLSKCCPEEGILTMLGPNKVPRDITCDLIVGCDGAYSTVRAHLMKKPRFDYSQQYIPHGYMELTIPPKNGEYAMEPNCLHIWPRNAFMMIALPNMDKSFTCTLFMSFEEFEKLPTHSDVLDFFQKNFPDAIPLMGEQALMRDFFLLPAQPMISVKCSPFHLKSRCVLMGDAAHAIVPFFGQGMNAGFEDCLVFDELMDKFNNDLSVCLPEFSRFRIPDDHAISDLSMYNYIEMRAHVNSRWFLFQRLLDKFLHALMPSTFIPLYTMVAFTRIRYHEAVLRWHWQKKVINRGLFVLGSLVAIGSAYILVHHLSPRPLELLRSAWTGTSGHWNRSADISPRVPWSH
Protocol: as §1, §2, §3

[4] = target: T4, HEK293 cells stably expressing rat KMO (Rattus norvegicus, UniProt O88867); test: Cell-based rat KMO inhibition assay (LC/MS of 3-hydroxykynurenine)
T4 construct: expressed in transfected cells
T4 sequence (O88867 whole entry): as above
Protocol: as §4, §5, §6, §3

T1 sequence (O15229 whole entry): as the sequence (O15229 whole entry) above

IC50 ([1]; cell-free enzyme assay, high kynurenine, read-out: Human KMO IC50): 3.8 nM
inhibition rate, Hs-KMO cell-free assay (Figure 1A source data) ([1]; conc 0.0003 μM, duplicates): 2.492%
inhibition at 0.0003 µM ([1]; conc 0.0003 μM, duplicates, read-out: inhibition rate, Hs-KMO cell-free assay (Figure 1A source data)): 4.34%
inhibition rate, Hs-KMO cell-free assay (Figure 1A source data) ([1]; conc 0.001 μM, duplicates): 10.698%
inhibition at 0.001 µM ([1]; conc 0.001 μM, duplicates, read-out: inhibition rate, Hs-KMO cell-free assay (Figure 1A source data)): 11%
inhibition rate, Hs-KMO cell-free assay (Figure 1A source data) ([1]; conc 0.003 μM, duplicates): 34.671%
inhibition at 0.003 µM ([1]; conc 0.003 μM, duplicates, read-out: inhibition rate, Hs-KMO cell-free assay (Figure 1A source data)): 36%
inhibition rate, Hs-KMO cell-free assay (Figure 1A source data) ([1]; conc 0.01 μM, duplicates): 91.745%
inhibition at 0.01 µM ([1]; conc 0.01 μM, duplicates, read-out: inhibition rate, Hs-KMO cell-free assay (Figure 1A source data)): 91.2%
inhibition rate, Hs-KMO cell-free assay (Figure 1A source data) ([1]; conc 0.03 μM, duplicates): 101.827%
inhibition at 0.03 µM ([1]; conc 0.03 μM, duplicates, read-out: inhibition rate, Hs-KMO cell-free assay (Figure 1A source data)): 102%
inhibition rate, Hs-KMO cell-free assay (Figure 1A source data) ([1]; conc 0.1 μM, duplicates): 97.991%
inhibition at 0.1 µM ([1]; conc 0.1 μM, duplicates, read-out: inhibition rate, Hs-KMO cell-free assay (Figure 1A source data)): 98.8%
inhibition rate, Hs-KMO cell-free assay (Figure 1A source data) ([1]; conc 0.3 μM, duplicates): 101.967%
inhibition at 0.3 µM ([1]; conc 0.3 μM, duplicates, read-out: inhibition rate, Hs-KMO cell-free assay (Figure 1A source data)): 103%
inhibition rate, Hs-KMO cell-free assay (Figure 1A source data) ([1]; conc 1 μM, duplicates): 95.974%
inhibition at 1 µM ([1]; conc 1 μM, duplicates, read-out: inhibition rate, Hs-KMO cell-free assay (Figure 1A source data)): 103%
inhibition at 0.0003 µM ([2]; HEK293, conc 0.0003 μM, duplicates, read-out: inhibition rate, Hs-KMO cellular assay (Figure 1C source data)): 6.79%
inhibition at 0.001 µM ([2]; HEK293, conc 0.001 μM, duplicates, read-out: inhibition rate, Hs-KMO cellular assay (Figure 1C source data)): 11%
inhibition at 0.003 µM ([2]; HEK293, conc 0.003 μM, duplicates, read-out: inhibition rate, Hs-KMO cellular assay (Figure 1C source data)): 12.3%
inhibition at 0.01 µM ([2]; HEK293, conc 0.01 μM, duplicates, read-out: inhibition rate, Hs-KMO cellular assay (Figure 1C source data)): 32.5%
inhibition at 0.03 µM ([2]; HEK293, conc 0.03 μM, duplicates, read-out: inhibition rate, Hs-KMO cellular assay (Figure 1C source data)): 100%
inhibition at 0.1 µM ([2]; HEK293, conc 0.1 μM, duplicates, read-out: inhibition rate, Hs-KMO cellular assay (Figure 1C source data)): 104%
inhibition at 0.3 µM ([2]; HEK293, conc 0.3 μM, duplicates, read-out: inhibition rate, Hs-KMO cellular assay (Figure 1C source data)): 105%
IC50 ([2]; HEK293 cells expressing human KMO, LC/MS, read-out: Human cell-based assay IC50): 12 nM
inhibition rate, Hs-KMO cellular assay (Figure 1C source data) ([2]; conc 0.0003 μM, duplicates): 4.270%
inhibition rate, Hs-KMO cellular assay (Figure 1C source data) ([2]; conc 0.001 μM, duplicates): 10.835%
inhibition rate, Hs-KMO cellular assay (Figure 1C source data) ([2]; conc 0.003 μM, duplicates): 13.039%
inhibition rate, Hs-KMO cellular assay (Figure 1C source data) ([2]; conc 0.01 μM, duplicates): 26.636%
inhibition rate, Hs-KMO cellular assay (Figure 1C source data) ([2]; conc 0.03 μM, duplicates): 98.487%
inhibition rate, Hs-KMO cellular assay (Figure 1C source data) ([2]; conc 0.1 μM, duplicates): 104.397%
IC50 ([3]; cell-free enzyme assay, high kynurenine): 9 nM
inhibition rate, Rat-KMO cell-free assay (Figure 1B source data) ([3]; conc 0.0003 μM, duplicates): 0.623%
inhibition at 0.0003 µM ([3]; conc 0.0003 μM, duplicates, read-out: inhibition rate, Rat-KMO cell-free assay (Figure 1B source data)): 0.676%
inhibition rate, Rat-KMO cell-free assay (Figure 1B source data) ([3]; conc 0.001 μM, duplicates): 5.077%
inhibition at 0.001 µM ([3]; conc 0.001 μM, duplicates, read-out: inhibition rate, Rat-KMO cell-free assay (Figure 1B source data)): 6.43%
inhibition rate, Rat-KMO cell-free assay (Figure 1B source data) ([3]; conc 0.003 μM, duplicates): 23.289%
inhibition at 0.003 µM ([3]; conc 0.003 μM, duplicates, read-out: inhibition rate, Rat-KMO cell-free assay (Figure 1B source data)): 23.8%
inhibition rate, Rat-KMO cell-free assay (Figure 1B source data) ([3]; conc 0.01 μM, duplicates): 55.764%
inhibition at 0.01 µM ([3]; conc 0.01 μM, duplicates, read-out: inhibition rate, Rat-KMO cell-free assay (Figure 1B source data)): 56.6%
inhibition rate, Rat-KMO cell-free assay (Figure 1B source data) ([3]; conc 0.03 μM, duplicates): 81.294%
inhibition at 0.03 µM ([3]; conc 0.03 μM, duplicates, read-out: inhibition rate, Rat-KMO cell-free assay (Figure 1B source data)): 81.3%
inhibition rate, Rat-KMO cell-free assay (Figure 1B source data) ([3]; conc 0.1 μM, duplicates): 84.395%
inhibition at 0.1 µM ([3]; conc 0.1 μM, duplicates, read-out: inhibition rate, Rat-KMO cell-free assay (Figure 1B source data)): 83.1%
inhibition rate, Rat-KMO cell-free assay (Figure 1B source data) ([3]; conc 0.3 μM, duplicates): 91.102%
inhibition at 0.3 µM ([3]; conc 0.3 μM, duplicates, read-out: inhibition rate, Rat-KMO cell-free assay (Figure 1B source data)): 92.2%
inhibition rate, Rat-KMO cell-free assay (Figure 1B source data) ([3]; conc 1 μM, duplicates): 84.342%
inhibition at 1 µM ([3]; conc 1 μM, duplicates, read-out: inhibition rate, Rat-KMO cell-free assay (Figure 1B source data)): 88.8%
inhibition at 0.3 µM ([4]; HEK293, conc 0.3 μM, duplicates, read-out: inhibition rate, Rat-KMO cellular assay (Figure 1D source data)): 62%
inhibition at 1 µM ([4]; HEK293, conc 1 μM, duplicates, read-out: inhibition rate, Rat-KMO cellular assay (Figure 1D source data)): 91.7%
inhibition at 3 µM ([4]; HEK293, conc 3 μM, duplicates, read-out: inhibition rate, Rat-KMO cellular assay (Figure 1D source data)): 97.7%
inhibition at 10 µM ([4]; HEK293, conc 10 μM, duplicates, read-out: inhibition rate, Rat-KMO cellular assay (Figure 1D source data)): 100%
inhibition at 30 µM ([4]; HEK293, conc 30 μM, duplicates, read-out: inhibition rate, Rat-KMO cellular assay (Figure 1D source data)): 100%
IC50 ([4]; HEK293 cells expressing rat KMO, LC/MS): 240 nM
inhibition rate, Rat-KMO cellular assay (Figure 1D source data) ([4]; conc 0.3 μM, duplicates): 48.933%
inhibition rate, Rat-KMO cellular assay (Figure 1D source data) ([4]; conc 1 μM, duplicates): 83.933%
inhibition rate, Rat-KMO cellular assay (Figure 1D source data) ([4]; conc 3 μM, duplicates): 95.840%
inhibition rate, Rat-KMO cellular assay (Figure 1D source data) ([4]; conc 10 μM, duplicates): 99.692%
inhibition rate, Rat-KMO cellular assay (Figure 1D source data) ([4]; conc 30 μM, duplicates): 100.882%
SMILES: Cc1cnn(-c2ccc(OCc3ccccc3)c(C(=O)O)c2)c1-c1ccc(Cl)c(F)c1 [Compound 3]
